{
  "source": "patent US10723750B2",
  "about": "“Sphingamide compounds and methods for binding iNKT cells” (La Jolla Institute for Allergy and Immunology, priority 2015, dated 2020)",
  "key": {"[1]": {"tested_on": "murine iNKT hybridoma cells", "experiment": "Sphingamide competition with OCH in vitro, APC-free recombinant mCD1d (IL-2 ELISA)", "type": "cell-based, mouse", "details": "JG168 1-20 ug/ml mixed with 1 ug/ml OCH, FIG. 8", "procedure": "For in vitro stimulation, murine iNKT hybridoma cells at 5×10^4 cells/well in 96-well plates were incubated with CD1d (loaded with OCH and the competing sphingamide) and levels of iNKT cell activation was monitored by measuring murine IL-2 secretion by ELISA."}, "[2]": {"tested_on": "iNKT cells in C57BL/6 mice", "experiment": "Sphingamide competition with OCH in vivo, serum IL-4 and IFN-γ", "set-up": "species or system mouse", "details": "FIG. 9", "procedure": "Cytokine levels were measured from blood serum using ELISA after 4 hours (IL-4) and 16 hours (IFN-γ)."}, "[3]": {"details": "cited from earlier work"}, "[4]": {"tested_on": "murine iNKT hybridoma cells", "experiment": "iNKT hybridoma activation, APC-free assay with recombinant mCD1d (IL-2 ELISA)", "type": "cell-based, mouse", "details": "FIG. 5A/5D", "procedure": "(§1) First, the present sphingamide compounds were tested to determine whether they activated iNKT cell hybridomas when the sphingamide was presented to the iNKT cell TCR by (a) an antigen presenting-cell (APC) free assay which uses recombinant mCD1d, (b) an A20 B-cell (an antigen presenting cell) expressing the wild-type (WT) mCD1d, or (c) an A20 B-cell expressing a tail-deleted mCD1d. The tail deleted mCD1d lacks the “YQDI” amino acid sorting motif required for routing CD1d to endosomes (for example, amino acid residues 314-317 of SEQ ID NO: 2 would be missing).\n(§2) For in vitro stimulation, murine iNKT hybridoma cells at 5×10^4 cells/well in 96-well plates were stimulated with the 10^5 cells/well glycolipid pulsed BMDCs in cDMEM for 4, 16 or 24 hours at 37° C. with 0.05 μg/ml, 0.1 μg/ml, 0.5 μg/ml, 1 μg/ml, 2 μg/ml, or 5 μg/ml of lipid, and levels of murine IL-2 secretion were determined by ELISA.\nThe present sphingamide, or amide-lacking versions were tested to determine whether they activated iNKT cell hybridomas when the sphingamide was presented to the iNKT cell TCR by an antigen presenting-cell (APC) free assay which uses recombinant mCD1d. […]\nFor in vitro stimulation, murine iNKT hybridoma cells at 5×10^4 cells/well were added to the wells containing CD1d and incubated in the presence of 5% CO2 at 37° C. over night. Levels of murine IL-2 secretion were determined by ELISA."}, "[5]": {"tested_on": "murine iNKT hybridoma cells", "experiment": "iNKT hybridoma activation, A20 B cells expressing wild-type mCD1d (IL-2 ELISA)", "type": "cell-based, mouse", "details": "A20/mCD1d wt, FIG. 5B", "procedure": "as §1, §2\n(§3) Tail-deleted mCD1d cannot recycle back into the cell, as the binding site for a required lipid loading factor has been deleted. (see Jin et al., Immunity 2009, 30(6):888-898 for a discussion of the model)."}, "[6]": {"tested_on": "murine iNKT hybridoma cells", "experiment": "iNKT hybridoma activation, A20 B cells expressing tail-deleted mCD1d (IL-2 ELISA)", "type": "cell-based, mouse", "details": "tail-deleted mCD1d A20 B cell, FIG. 5C", "procedure": "as §1, §2, §3"}, "Vα24+ human NKT cells": {"tested_on": "Vα24+ human NKT cells", "experiment": "Activation of human iNKT cells in vitro, GM-CSF release (sandwich ELISA)", "type": "cell-based", "details": "glycolipid-pulsed PBMCs with Vα24+ human NKT cells, 24 h, FIG. 7", "excerpt": "The isolation and expansion of human Vα24^+ NKT cell lines has been published previously (Rogers, P. R., Matsumoto, A., Naidenko, O., Kronenberg, M., Mikayama, T., and Kato, S. (2004) Expansion of human Vα24^+ NKT cells by repeated stimulation with KRN7000. J. Immunol. Methods 285, 197-214). Human donor peripheral blood mononuclear cells (PBMCs, 1-1.5×10^6/ml) were isolated and cultured in RPMI 1640 medium (Invitrogen) supplemented with 10% (v/v) FBS and 1% (v/v) Pen/Strep/glutamine (10,000 units of penicillin, 10 mg of streptomycin, 29.2 mg/ml L-glutamine; Invitrogen), and cultures were expanded by weekly re-stimulation with αGalCer-pulsed, irradiated PBMC and recombinant human IL-2.\nPBMCs (1×10^5 per well) were pulsed with glycolipids, seeded in 96-well plates, and cultured in the presence of 5×10^4 Vα24^+ human NKT cells for 24 h. GM-CSF release was evaluated in a sandwich ELISA following the manufacturer's instructions (R&D Systems)."}, "[7]": {"tested_on": "iNKT cells in C57BL/6 mice", "experiment": "In vivo activation of iNKT cells, serum cytokines by ELISA", "set-up": "species or system mouse"}},
  "data": [
    {"molecule": "CCCCCCCC(=O)N[C@@H](CO[C@H]1OC(CO)[C@H](O)C(O)[C@@H]1O)[C@H](O)[C@H](O)CCCC(=O)NCCCCCCc1ccccc1", "note": "(stereo partly drawn) [JG168]", "values": [
      {"measurement": "competition with OCH (IL-2 secretion)", "setting": "[1]", "value": "No competition was observed"},
      {"measurement": "activation of iNKT cells in vivo", "setting": "[2]; 20 μg JG168 alone i.v.", "value": "did not activate iNKT cells in vivo"},
      {"measurement": "competition with OCH (serum IL-4 and IFN-γ)", "setting": "[2]; 1, 5 or 20 μg JG168 + 1 μg OCH i.v.", "value": "no competition was observed"}
    ]},
    {"molecule": "CCCCCCCCCCCCCCCCCCCCCCCC(=O)N[C@@H](CO[C@H]1OC(CO)[C@H](O)C(O)C1O)[C@H](O)[C@H](O)CCCCC", "note": "(stereo partly drawn) [OCH]", "values": [
      {"measurement": "solubility in aqueous solutions", "setting": "[3]", "value": "poorly soluble"}
    ]},
    {"molecule": "CCCCCCCCCCCCCC[C@@H](O)[C@@H](O)[C@H](CO[C@H]1OC(CO)[C@H](O)C(O)C1O)NC(=O)CCCCCCC", "note": "(stereo partly drawn) [PBS-25]", "values": [
      {"measurement": "solubility in aqueous solutions", "setting": "[3]", "value": "readily soluble"},
      {"measurement": "IL-2 secretion by iNKT hybridoma", "setting": "[4]", "value": "significant amount of IL-2"},
      {"measurement": "IL-2 secretion by iNKT hybridoma", "setting": "[5]", "value": "significant amount of IL-2"},
      {"measurement": "IL-2 secretion by iNKT hybridoma", "setting": "[6]", "value": "significant amount of IL-2"}
    ]},
    {"molecule": "CCCCCCCCCCCCCCCCCCCCCCCCCC(=O)N[C@@H](CO[C@H]1O[C@H](CO)[C@H](O)[C@H](O)[C@H]1O)[C@H](O)[C@H](O)CCCCCCCCCCCCCC", "note": "[α-GalCer, N-[(2S,3S,4R)-3,4-Dihydroxy-1-[(2S,3R,4S,5R,6R)-3,4,5-trihydroxy-6-(hydroxymethyl)oxan-2-yl]oxyoctadecan-2-yl]hexacosanamide]", "values": [
      {"measurement": "GM-CSF secretion", "setting": "Vα24+ human NKT cells", "value": "significant secretion of GMCSF at all doses"},
      {"measurement": "cytokines produced in vivo (IL-4 / IFN-γ)", "setting": "[7]; 1 μg glycolipid injected i.v., FIG. 12", "value": "makes both"},
      {"measurement": "serum IL-4", "setting": "[7]; C57BL/6 mice, 5 μg glycolipid i.v., 4 hours", "value": "significant amounts"},
      {"measurement": "serum IFN-γ", "setting": "[7]; C57BL/6 mice, 5 μg glycolipid i.v., 16 hours", "value": "significant amounts"},
      {"measurement": "solubility in aqueous solutions", "setting": "[3]", "value": "poorly soluble"},
      {"measurement": "IL-2 secretion by iNKT hybridoma", "setting": "[5]", "value": "stimulated the secretion of IL-2"},
      {"measurement": "IL-2 secretion by iNKT hybridoma", "setting": "[6]", "value": "did not stimulate IL-2 production"}
    ]}
  ]
}
